The source of these data is patent EP4620959A1, “CYCLIC COMPOUNDS USED AS MULTI-TARGET KINASE INHIBITORS AND PREPARATION METHOD THEREFOR” (Shanghai Institute of Organic Chemistry, Chinese Academy of …, priority 2022, dated 2024).

Chain of LRRK2 wt (Q5S007 whole entry): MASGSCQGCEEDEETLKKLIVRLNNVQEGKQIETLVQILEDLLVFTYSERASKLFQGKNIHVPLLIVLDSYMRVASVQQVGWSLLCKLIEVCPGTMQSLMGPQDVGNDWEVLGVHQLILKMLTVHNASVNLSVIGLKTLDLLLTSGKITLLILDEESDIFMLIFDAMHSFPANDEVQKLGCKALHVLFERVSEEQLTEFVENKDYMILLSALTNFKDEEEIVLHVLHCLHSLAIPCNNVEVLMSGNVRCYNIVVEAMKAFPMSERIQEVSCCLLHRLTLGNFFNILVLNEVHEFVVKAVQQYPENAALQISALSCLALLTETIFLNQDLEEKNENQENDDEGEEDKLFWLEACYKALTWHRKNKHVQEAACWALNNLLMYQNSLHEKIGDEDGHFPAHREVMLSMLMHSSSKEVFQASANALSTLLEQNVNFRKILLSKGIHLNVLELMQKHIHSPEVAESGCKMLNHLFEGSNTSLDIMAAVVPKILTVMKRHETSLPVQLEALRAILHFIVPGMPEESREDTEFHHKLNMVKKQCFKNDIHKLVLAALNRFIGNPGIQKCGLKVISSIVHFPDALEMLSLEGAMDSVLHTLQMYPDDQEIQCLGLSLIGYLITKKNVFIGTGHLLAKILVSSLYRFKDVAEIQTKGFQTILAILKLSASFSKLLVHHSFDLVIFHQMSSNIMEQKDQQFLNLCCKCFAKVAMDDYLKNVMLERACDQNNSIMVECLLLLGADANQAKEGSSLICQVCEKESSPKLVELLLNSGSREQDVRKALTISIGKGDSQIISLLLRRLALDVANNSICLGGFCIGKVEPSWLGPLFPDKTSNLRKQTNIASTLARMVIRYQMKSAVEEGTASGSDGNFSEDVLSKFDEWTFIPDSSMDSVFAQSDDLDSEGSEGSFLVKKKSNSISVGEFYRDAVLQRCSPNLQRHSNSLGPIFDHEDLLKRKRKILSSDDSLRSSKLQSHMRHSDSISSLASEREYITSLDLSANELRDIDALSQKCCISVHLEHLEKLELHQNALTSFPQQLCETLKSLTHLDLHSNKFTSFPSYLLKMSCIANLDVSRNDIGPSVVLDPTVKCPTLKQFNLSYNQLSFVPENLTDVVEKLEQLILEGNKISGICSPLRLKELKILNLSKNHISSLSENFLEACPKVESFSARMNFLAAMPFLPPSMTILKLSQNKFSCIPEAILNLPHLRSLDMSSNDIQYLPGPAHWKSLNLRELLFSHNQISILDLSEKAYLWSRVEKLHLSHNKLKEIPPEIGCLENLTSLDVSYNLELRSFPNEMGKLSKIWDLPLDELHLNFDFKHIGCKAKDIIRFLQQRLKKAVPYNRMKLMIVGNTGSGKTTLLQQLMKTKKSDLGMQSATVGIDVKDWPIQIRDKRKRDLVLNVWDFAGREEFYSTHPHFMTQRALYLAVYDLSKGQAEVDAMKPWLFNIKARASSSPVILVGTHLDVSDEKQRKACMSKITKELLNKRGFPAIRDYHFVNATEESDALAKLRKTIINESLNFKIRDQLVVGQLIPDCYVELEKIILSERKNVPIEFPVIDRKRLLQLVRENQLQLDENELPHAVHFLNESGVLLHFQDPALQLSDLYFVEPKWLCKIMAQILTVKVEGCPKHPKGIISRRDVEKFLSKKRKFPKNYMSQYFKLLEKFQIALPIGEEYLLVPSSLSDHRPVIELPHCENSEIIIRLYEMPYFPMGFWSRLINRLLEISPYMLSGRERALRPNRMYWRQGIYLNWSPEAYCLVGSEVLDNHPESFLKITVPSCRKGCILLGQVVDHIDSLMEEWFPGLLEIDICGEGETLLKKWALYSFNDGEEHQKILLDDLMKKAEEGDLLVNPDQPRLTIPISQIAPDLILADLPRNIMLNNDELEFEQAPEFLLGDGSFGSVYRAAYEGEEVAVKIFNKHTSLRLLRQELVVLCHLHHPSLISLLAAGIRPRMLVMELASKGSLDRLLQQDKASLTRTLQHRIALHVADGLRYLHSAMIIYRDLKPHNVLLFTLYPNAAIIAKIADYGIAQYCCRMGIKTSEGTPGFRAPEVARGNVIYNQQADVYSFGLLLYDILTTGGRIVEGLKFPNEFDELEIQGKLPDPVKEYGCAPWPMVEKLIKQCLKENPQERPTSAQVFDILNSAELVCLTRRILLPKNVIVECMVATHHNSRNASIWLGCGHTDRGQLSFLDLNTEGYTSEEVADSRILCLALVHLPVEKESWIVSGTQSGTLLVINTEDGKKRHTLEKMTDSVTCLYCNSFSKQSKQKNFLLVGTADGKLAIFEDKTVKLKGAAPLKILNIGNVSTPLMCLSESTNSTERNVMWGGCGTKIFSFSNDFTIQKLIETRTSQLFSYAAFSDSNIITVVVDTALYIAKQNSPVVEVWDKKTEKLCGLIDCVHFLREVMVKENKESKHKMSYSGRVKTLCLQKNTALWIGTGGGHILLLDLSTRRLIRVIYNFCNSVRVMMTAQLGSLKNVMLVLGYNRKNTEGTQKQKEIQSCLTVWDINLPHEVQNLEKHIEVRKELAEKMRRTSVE

The first assay has as its target LRRK2 wt (Homo sapiens, UniProt Q5S007). Kind of assay: Kinase activity inhibition assay (ADP-Glo), LRRK2 wt. It is filed as biochemical. Conditions: ATP 20 µM, compound at 100 nM. As for the experimental part: The kinase activity inhibition assay was performed by ICE Bioscience (Beijing) using ADP-Glo and HTRF methods.
Table 1.1-1 ADP-Glo Buffer
Table 1.2-1 ADP-Glo Kinase and Substrate Formulation
SD is the standard error, and AVE is the average value. Table 2-1 LRRK2 Activity Inhibition Test Results
Background: ADP-Glo turns the ADP formed in a reaction into a luminescent signal.
As to `Cc1nn2cc1Nc1ncc(C(F)(F)F)c(n1)NC1CCCC(C1)NC(=O)C2(C)C` (stereo not drawn) [Example T-42, (5^3R,E)-1^3,8,8-Trimethyl-3^5-(trifluoromethyl)-1^1H-2,4,6-triaza-3(2,4)-pyrimidina-1(4,1)-pyrazola-5(1,3)-cyclohexacyclooctan-7-one], the “LRRK2 wt inhibition rate at 100 nM” value was 42.08%@100 nM.

Staying with this assay, now noted: read-out: LRRK2 wt inhibition rate at 100 nM, ATP 20 µM, compound at 100 nM.
As a reminder, the inhibition is the change of the read-out against control, counted positive when it falls. On to `Cc1nn2cc1Nc1ncc(C(F)(F)F)c(n1)NCCCOCCNC(=O)C2(C)C` [Example T-2, (E)-3^3,4,4-Trimethyl-1^5-(trifluoromethyl)-3^1H-9-oxa-2,6,13-triaza-1(2,4)-pyrimidina-3(4,1)-pyrazolacyclotridecan-5-one], for which the inhibition at 0.1 µM worked out at 55%.

Turning to `Cc1nn2cc1Nc1ncc3[nH]nc(c3n1)CCCNC(=O)C2(C)C` [Example T-9, (E)-3^3,4,4-Trimethyl-1^1H,3^1H-2,6-diaza-1(5,3)pyrazolo[4,3-d]pyrimidine-3(4,1)-pyrazolacyclononan-5-one], the inhibition at 0.1 µM was -0.5%.

With `Cc1nn2cc1Nc1ncc(C(F)(F)F)c(n1)NCCCn1cc(nn1)C2(C)C` [Example T-16, (3^4E,5^4Z)-3^3,4,4-Trimethyl-1^5-(trifluoromethyl)-3^1H,5^1H-2,9-diaza-1(2,4)-pyrimidina-5(4,1)-triazole-3(4,1)-pyrazolacyclononane], the inhibition at 0.1 µM is 86.1%.

Take `Cc1nn2cc1Nc1ncc(C(F)(F)F)c(n1)NCCCn1ncc(n1)C2(C)C` [Example T-17, (3^4E,5^3Z)-3^3,4,4-Trimethyl-1^5-(trifluoromethyl)-3^1H,5^2H-2,9-diaza-1(2,4)-pyrimidina-5(4,2)-triazole-3(4,1)-pyrazolacyclononane]: the inhibition at 0.1 µM came to 96.9%.

Consider `Cc1nn2cc1Nc1ncc3[nH]cc(c3n1)CCCNC(=O)C2(C)C` [Example T-18, (E)-3^3,4,4-Trimethyl-1^5H,3^1H-2,6-diaza-1(2,7)-pyrrolo[3,2-d]pyrimidine-3(4,1)-pyrazolacyclononan-5-one], for which the inhibition at 0.1 µM was 6.61%.

With `Cc1nn2cc1Nc1ncc3c(n1)c(nn3C)CCCNC(=O)C2(C)C` [Example T-19, (E)-1^1,3^3,4,4-Tetramethyl-1^1H,3^1H-2,6-diaza-1(5,3)-pyrazolo[4,3-d]pyrimidine-3(4,1)-pyrazinacyclononan-5-one], the inhibition at 0.1 µM was determined as 11.6%.

For the compound `Cc1nn2cc1Nc1ncc3nn(C)c(c3n1)CCCNC(=O)C2(C)C` [Example T-20, (1^3E,1^4Z,3^4E)-1^2,3^3,4,4-Tetramethyl-1^2H,3^1H-2,6-diaza-1(5,3)-pyrazolo[4,3-d]pyrimidine-3(4,1)-pyrazinacyclononan-5-one], the inhibition at 0.1 µM was 0.84%.

Turning to `Cc1nn2cc1Nc1ncc3c(n1)c(cn3C)CCCNC(=O)C2(C)C` [Example T-21, (E)-1^5,3^3,4,4-Tetramethyl-1^5H,3^1H-2,6-diaza-1(2,7)-pyrrolo[3,2-d]pyrimidine-3(4,1)-pyrazolacyclononan-5-one], the inhibition at 0.1 µM turned out to be 60.1%.

As to `Cc1nn2cc1Nc1ncc3c(Cl)cn(c3n1)CCCCNC(=O)C2(C)C` [Example T-22, (E)-1^5-Chloro-3^3,4,4-trimethyl-1^7H,3^1H-2,6-diaza-1(2,7)-pyrrolo[2,3-d]pyrimidine-3(4,1)-pyrazolacyclodecan-5-one], the inhibition at 0.1 µM is 92.5%.

Take `Cc1nn2cc1Nc1ncc3c(Cl)cn(c3n1)CCCCN(C)C(=O)C2(C)C` [Example T-23, (E)-1^5-Chloro-3^3,4,4,6-tetramethyl-1^7H,3^1H-2,6-diaza-1(2,7)-pyrrolo[2,3-d]pyrimidine-3(4,1)-pyrazolacyclodecan-5-one]: the inhibition at 0.1 µM came to 19.1%.

With `Cc1nn2cc1Nc1ncc3ccc(n3n1)CCCNC(=O)C2(C)C` [Example T-24, (1^1Z,3^4E)-3^3,4,4-Trimethyl-3^1H-2,6-diaza-1(2,7)-pyrrolo[2,1-f][1,2,4]triazine-3(4,1)-pyrazolacyclononan-5-one], the inhibition at 0.1 µM stood at 57.3%.

As for `Cc1nn2cc1Nc1ncc3c(Cl)cc(n3n1)CCCCNC(=O)C2(C)C` [Example T-26, (1^1Z,3^4E)-1^5-Chloro-3^3,4,4-trimethyl-3^1H-2,6-diaza-1(2,7)-pyrrolo[2,1-f][1,2,4]triazine-3(4,1)-pyrazolacyclodecan-5-one], the inhibition at 0.1 µM is 98.4%.

On to `CC1(C)C(=O)NCCCc2cc(Cl)c3cnc(nn23)Nc2cn1nc2Cl` [Example T-27, (1^1Z,3^4E)-1^53^3-Dichloro-4,4-dimethyl-3^1H-2,6-diaza-1(2,7)-pyrrolo[2,1-f][1,2,4]triazine-3(4,1)-pyrazolacyclononan-5-one], for which the inhibition at 0.1 µM was 88%.

For the compound `CC1(C)C(=O)NCCCc2cc(Cl)c3cnc(nn23)Nc2cn1nc2C1CC1` [Example T-28, (1^1Z,3^4E)-1^5-Chloro-3^3-cyclopropyl-4,4-dimethyl-3^1H-2,6-diaza-1(2,7)-pyrrolo[2,1-f][1,2,4]triazine-3(4,1)-pyrazolacyclononan-5-one], the inhibition at 0.1 µM is 98.3%.

On to `Cc1nn2cc1Nc1ncc3c(C(F)(F)F)cc(n3n1)CCCNC(=O)C2(C)C` [Example T-29, (1^1Z,3^4E)-3^3,4,4-Trimethyl-1^5-(trifluoromethyl)-3^1H-2,6-diaza-1(2,7)-pyrrolo[2,1-f][1,2,4]triazine-3(4,1)-pyrazolacyclononan-5-one], for which the inhibition at 0.1 µM amounted to 95.6%.

Consider `Cc1nn2cc1Nc1ncc3c(C#N)cc(n3n1)CCCNC(=O)C2(C)C` [Example T-30, (1^1Z,3^4E)-3^3,4,4-Trimethyl-5-oxo-3^1H-2,6-diaza-1(2,7)-pyrrolo[2,1-f][1,2,4]triazine-3(4,1)-pyrazolacyclononan-1^5-carbonitrile], for which the inhibition at 0.1 µM turned out to be 61.3%.

`Cc1nn2cc1Nc1ncc(C(F)(F)F)c(n1)N(C)CCCN(C)C(=O)C2(C)C` [Example T-31, (E)-3^3,4,4,6,10-Pentamethyl-1^5-(trifluoromethyl)-3^1H-2,6,10-triaza-1(2,4)-pyrimidina--3(4,1)-pyrazolacyclodecan-5-one]: the inhibition at 0.1 µM amounted to 8.85%.

`Cc1nn2cc1Nc1ncc(C(F)(F)F)c(n1)N(C)CCCNC(=O)C2(C)C` [Example T-32, (E)-3^3,4,4,10-Tetramethyl-1^5-(trifluoromethyl)-3^1H-2,6,10-triaza-1(2,4)-pyrimidina-3(4,1)-pyrazolacyclodecan-5-one]: the inhibition at 0.1 µM stood at 91.6%.

Consider `Cc1nn2cc1Nc1ncc(C(F)(F)F)c(n1)NCCCN(C)C(=O)C2(C)C` [Example T-33, (E)-3^3,4,4,6-Tetramethyl-1^5-(trifluoromethyl)-3^1H-2,6,10-triaza-1(2,4)-pyrimidina-3(4,1)-pyrazolacyclodecan-5-one], for which the inhibition at 0.1 µM was 2.45%.

With `Cc1nn2cc1Nc1ncc(C(F)(F)F)c(n1)NCCCN(C)CC2(C)C` [Example T-34, (E)-3^3,4,4,6-Tetramethyl-1^5-(trifluoromethyl)-3^1H-2,6,10-triaza-1(2,4)-pyrimidina-3(4,1)-pyrazolacyclodecane], the inhibition at 0.1 µM was -12.7%.

With `Cc1nn2cc1Nc1ncc(C(F)(F)F)c(n1)NCCn1cc(nn1)CC2(C)C` [Example T-35, (3^4E,6^4Z)-3^3,4,4-Trimethyl-1^5-(trifluoromethyl)-3^1H,6^1H-2,9-diaza-1(2,4)-pyrimidina-6(4,1)-triazole-3(4,1)-pyrazolacyclononane], the inhibition at 0.1 µM was found to be 9.41%.

As to `Cc1nn2cc1Nc1ncc(C(F)(F)F)c(n1)NCCn1ncc(n1)CC2(C)C` [Example T-36, (3^4E,6^3Z)-3^3,4,4-Trimethyl-1^5-(trifluoromethyl)-3^1H,6^2H-2,9-diaza-1(2,4)-pyrimidina-6(4,2)-triazole-3(4,1)-pyrazolacyclononane], the inhibition at 0.1 µM is 28.9%.

With `Cc1nn2cc1Nc1ncc(C(F)(F)F)c(n1)NCCCOC(=O)C2(C)C` [Example T-37, (E)-3^3,4,4-Trimethyl-1^5-(trifluoromethyl)-3^1H-6-oxa-2,10-diaza-1(2,4)-pyrimidina-3(4,1)-pyrazolacyclodecan-5-one], the inhibition at 0.1 µM was found to be 83.4%.

As to `Cc1nn2cc1Nc1ncc(C(F)(F)F)c(n1)NCCC(C)NC(=O)C2(C)C` (stereo not drawn) [Example T-38, (E)-3^3,4,4,7-Tetramethyl-1^5-(trifluoromethyl)-3^1H-2,6,10-triaza-1(2,4)-pyrimidina-3(4,1)-pyrazolacyclodecan-5-one], the inhibition at 0.1 µM was 37.7%.

Regarding `Cc1nn2cc1Nc1ncc(C(F)(F)F)c(n1)NCCC(C)(C)NC(=O)C2(C)C` [Example T-39, (E)-3^3,4,4,7,7-Pentamethyl-1^5-(trifluoromethyl)-3^1H-2,6,10-triaza-1(2,4)-pyrimidina-3(4,1)-pyrazolacyclodecan-5-one], the inhibition at 0.1 µM is 28.9%.

Take `Cc1nn2cc1Nc1ncc(C(F)(F)F)c(n1)NC/C=C/CNC(=O)C2(C)C` [Example T-40, (3^4E,8E)-3^3,4,4-Trimethyl-1^5-(trifluoromethyl)-3^1H-2,6,11-triaza-1(2,4)-pyrimidina-3(4,1)-pyrazolylundecapentaene-5-one]: the inhibition at 0.1 µM worked out at 56.1%.

For `Cc1nn2cc1Nc1ncc(C(F)(F)F)c(n1)N[C@H]1CC[C@H](CC1)NC(=O)C2(C)C` [Example T-41, (5^1s,5^4s,E)-1^3,8,8-Trimethyl-3^5-(trifluoromethyl)-1^1H-2,4,6-triaza-3(2,4)-pyrimidina-1(4,1)-pyrazola-5(1,4)-cyclohexacyclooctan-7-one], the inhibition at 0.1 µM came out at 20.8%.

In the case of `Cc1nn2cc1Nc1ncc(C(F)(F)F)c(n1)NCC(F)(F)COC(=O)C2(C)C` [Example T-43, (E)-8,8-Difluoro-3^3,4,4-trimethyl-1^5-(trifluoromethyl)-3^1H-6-oxa-2,10-diaza-1(2,4)-pyrimidina-3(4,1)-pyrazolacyclodecan-5-one], the inhibition at 0.1 µM came to 64.6%.

`Cc1nn2cc1Nc1ncc(C(F)(F)F)c(n1)NCC1(CC1)CNC(=O)C2(C)C` [Example T-44, (E)-3',4',4'-Trimethyl-5'-(trifluoromethyl)spiro[cyclopropane-8'-2,6,10-triaza-1(2,4)-pyrimidina-3(4,1)-pyrazolacyclodecan]-5'-one]: the inhibition at 0.1 µM was 56.8%.
